This test concerns cercariae of Schistosoma mansoni (Puerto Rican strain). In kind it is cell-based. The settings on record: 50 micromolar. On the procedure: A modification of the assay developed by Clegg and Smithers (Clegg & Smithers, 1972. Int. J. Parasitol. 2, 79-98.) was used. Two Plexiglass chambers were manufactured which could be screwed together to hold a 25×25 mm section of skin at the interface of the two chambers. Human skin was obtained from autopsy (6-12 hours following death) or from amputation specimens received at the Department of Surgical Pathology, UCSF. The chamber below the skin was filled with tissue culture medium (DME H16) prewarmed to 37° C. After the skin was clamped, the upper chamber was filled with water containing 9000 cercariae of Schistosoma mansoni (Puerto Rican strain). Cercariae will follow a thermal gradient, and they are stimulated by the lipid on the surface of skin to invade (Stirewalt, 1974. Adv. Parasitol. 12, 115-180). After one hour exposure to cercariae the skin was removed, fixed in 10% phosphate buffered formalin for 24 h, and sectioned at 2 mm intervals. Following dehydration and routine paraffin embedding, 5μ sections were cut by microtome and stained with hemotoxylin and eosin. The number of cercariae which had invaded epidermis or dermis was counted in each section. Percent inhibition of invasion was calculated as [formula] All assays were done in triplicate and standard deviation of the mean calculated. […]

Molecules are shown by their SMILES.

As to `COC(=O)CCC(=O)N[C@@H](C)C(=O)N[C@@H](C)C(=O)N1CCC[C@H]1C(=O)N[C@@H](Cc1ccccc1)B(O)O` [MeO-Suc-Ala-Ala-Pro-(L)boro-Phe-OH], the “cercariae inhibited from invading skin” value is 50%.

Source of the values: patent US5284829A, “Synthetic tetrapeptides for the prevention of schistosome parasite infection” (priority 1991, dated 1994).
